Active and inactive are the calls of the source. No cut-off for these calls is given here.
Columns and labels:
[1] = system: C3H 10T1/2; assay: Induction of osteogenic differentiation in mouse C3H10T1/2 cells assessed as osteoblast by measuring increase in alkaline phosphatase at 20 uM relative to control; assay type: functional, cell-based
[2] = system: C3H 10T1/2; assay: Induction of osteogenic differentiation in mouse C3H10T1/2 cells assessed as increase in osteopontin mRNA expression by RT-qPCR analysis relative to control; assay type: functional, cell-based
[3] = Induction of osteogenic differentiation in mouse C3H10T1/2 cells assessed as increase in alkaline phosphatase mRNA expression at 40 uM by RT-qPCR analysis relative to control; assay type: functional, C3H 10T1/2
[4] = Induction of osteogenic differentiation in mouse C3H10T1/2 cells assessed as increase in osteopontin mRNA expression at 40 uM by RT-qPCR analysis relative to control; assay type: functional, C3H 10T1/2
[5] = system: C3H 10T1/2; assay: Induction of osteogenic differentiation in mouse C3H10T1/2 cells upto 40 uM assessed as osteoblast by measuring alkaline phosphatase after 10 days of differentiation relative to control; assay type: functional, cell-based; conditions: dose microM <=40, time 10.0 day
[6] = system: C3H 10T1/2; assay: Induction of osteogenic differentiation in mouse C3H10T1/2 cells assessed as increase in alkaline phosphatase mRNA expression by RT-qPCR analysis relative to control; assay type: functional, cell-based
[7] = system: C3H 10T1/2; assay: Induction of osteogenic differentiation in mouse C3H10T1/2 cells assessed as increase in alkaline phosphatase mRNA expression at 5 uM by RT-qPCR analysis relative to control; assay type: functional, cell-based
[8] = system: C3H 10T1/2; assay: Induction of osteogenic differentiation in mouse C3H10T1/2 cells assessed as increase in osteopontin mRNA expression at 5 uM by RT-qPCR analysis relative to control; assay type: functional, cell-based

| Compound | Activity [1] | Activity [2] | fold change (FC) [3] | fold change (FC) [4] | Activity [5] | Activity [6] | Activity [7] | Activity [8] |
| --- | --- | --- | --- | --- | --- | --- | --- | --- |
| CO[C@@H](c1ccc(O)cc1)[C@H](O)C/C=C\c1ccc(O)cc1 | inactive |  |  |  |  |  |  |  |
| Oc1ccc(/C=C\C/C=C\c2ccc(O)cc2)cc1 | Active | Dose-dependent effect | 7.8 | 4.7 | Dose-dependent effect | Dose-dependent effect |  |  |
| COc1cc([C@H]2O[C@H](c3cc(OC)c(O)c(OC)c3)[C@@H](COC(=O)/C=C/c3ccc(O)cc3)[C@@H]2COC(=O)/C=C/c2ccc(O)cc2)cc(OC)c1O |  |  |  |  |  |  | Active | Active |

— ChEMBL document CHEMBL4673262, “Ginkgobilol, a new diarylpentanoid and an osteogenic diarylpentanoid analog from Ginkgo biloba leaves” (2020)
